The results in this text go back to ChEMBL document CHEMBL1201862, “PubChem BioAssay data set” (2004).

The structures appear in SMILES notation.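 Assay format: 96-well plates, 48-hour exposure. The concentration for 50% growth inhibition is given as GI50.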 Activity calls are given as the source filed them. Cut-off read from the data, not from the text of the source: active = GI50 up to about 1.1 µM and inactive = higher.

Some test systems named below: 786-0; BT-549; CAKI-1; COLO 205; DU-145; HCC 2998; HL-60; KM12; M19-MEL; MCF7; MDA-N; MOLT-4; Malme-3M; OVCAR-5; PC-3; SF-268; SK-MEL-5; SNB-75; UACC-257; UACC-62.
Assay in all cases: NCI anticancer screen, dose series, 48 h

With `O=C(c1nc2ccc([N+](=O)[O-])cc2nc1O)C(O)c1ccc2c(c1)OCO2` (centres undefined), the GI50 in the experiment on 786-0 is > 100 µM (inactive); with BT-549, > 100 µM (inactive); in the experiment on CAKI-1 it was > 96.2 µM (inactive); in the experiment on COLO 205 it was > 96.4 µM (inactive); in the experiment on DU-145, > 100 µM (inactive); with HCC 2998 it was > 100 µM (inactive). Also, the GI50 with HL-60 was > 39.1 µM (inactive); in the experiment on KM12 it was > 51.2 µM (inactive); in the experiment on M19-MEL, > 100 µM (inactive); in the experiment on MCF7, 96.8 µM (inactive); with MDA-N, 70.8 µM (inactive); in the experiment with MOLT-4, > 100 µM (inactive). Besides, the GI50 in the experiment with Malme-3M is > 100 µM (inactive); with OVCAR-5, > 100 µM (inactive); in the experiment with PC-3, > 100 µM (inactive); with SF-268 it was > 100 µM (inactive); in the experiment on SK-MEL-5, 45.7 µM (inactive); in the experiment with SNB-75, > 100 µM (inactive). The figures for the GI50 with UACC-257 and in the experiment on UACC-62 were > 100 µM (inactive) and 96.4 µM (inactive), respectively.

Take `C=COC(=O)N[C@H]1CCc2cc(OC)c(OC)c(OC)c2-c2ccc(SC)c(=O)cc21`: the GI50 in the experiment with 786-0, in the experiment with BT-549, in the experiment with CAKI-1, with COLO 205, in the experiment on DU-145 and with HCC 2998 was < 0.01 µM (active) each time. Also, the GI50 in the experiment with HL-60 is < 0.01 µM (active); in the experiment with KM12 it was < 0.01 µM (active); in the experiment on M19-MEL, < 0.01 µM (active); with MCF7, < 0.0136 µM (active); in the experiment on MDA-N, < 0.01 µM (active); with MOLT-4 it was < 0.01 µM (active). Moreover, the GI50 in the experiment on Malme-3M was < 0.01 µM (active); in the experiment with OVCAR-5, 0.173 µM (active); in the experiment on PC-3, < 0.01 µM (active); in the experiment on SF-268, < 0.01 µM (active); in the experiment with SK-MEL-5, < 0.01 µM (active); in the experiment on SNB-75, 0.0578 µM (active). The GI50 is 0.116 µM (active) with UACC-257 and < 0.01 µM (active) in the experiment with UACC-62.

As for `Cc1ccc(/N=N/c2ccc(N(CCC#N)CCC#N)cc2C)c(Br)c1`, the GI50 was 17 µM (inactive) with 786-0; 2.38 µM (inactive) with CAKI-1; 38.1 µM (inactive) with COLO 205; 5.28 µM (inactive) with HCC 2998; 5.42 µM (inactive) in the experiment on HL-60; 3.5 µM (inactive) in the experiment with KM12. Besides, the GI50 in the experiment on M19-MEL is 25.4 µM (inactive); in the experiment with MOLT-4, 7.5 µM (inactive); with Malme-3M, 44.2 µM (inactive); in the experiment with OVCAR-5, 56 µM (inactive); in the experiment with SF-268, 21.1 µM (inactive); in the experiment on SK-MEL-5 it was 16.3 µM (inactive). The GI50 with SNB-75 was 11.3 µM (inactive); with UACC-257 it was 26 µM (inactive); in the experiment on UACC-62, 13.5 µM (inactive).

As for `O=C1C=CC(=O)c2c1cc1ccccc1c2O`, the GI50 in the experiment with 786-0 is 7.67 µM (inactive); in the experiment with BT-549, 9.38 µM (inactive); in the experiment with CAKI-1 it was 4.21 µM (inactive); in the experiment with COLO 205, 2.4 µM (inactive); in the experiment with DU-145, 14.6 µM (inactive); in the experiment with HCC 2998 it was 17.7 µM (inactive). Also, the GI50 in the experiment on HL-60 was 0.628 µM (active); in the experiment with KM12 it was 13.2 µM (inactive); with M19-MEL it was 4.01 µM (inactive); in the experiment with MDA-N it was 5.26 µM (inactive); with MOLT-4, 0.387 µM (active); with Malme-3M it was 6.18 µM (inactive). In addition, the GI50 in the experiment on OVCAR-5 is 18.4 µM (inactive); with PC-3, 6.03 µM (inactive); in the experiment on SF-268, 8.24 µM (inactive); in the experiment with SK-MEL-5, 12.1 µM (inactive); in the experiment on SNB-75, 18.1 µM (inactive); in the experiment on UACC-257 it was 3.18 µM (inactive). Besides, the GI50 with UACC-62 is 6.32 µM (inactive).

Take `Cc1ccc(NC(=O)CCC(CC(=O)C(C)(C)C)=NNC(=O)C(=O)NN)cc1C`: the GI50 in the experiment on 786-0, in the experiment with CAKI-1, in the experiment on COLO 205, in the experiment with HCC 2998, in the experiment with HL-60 and in the experiment on KM12 was > 100 µM (inactive) each time. The GI50 in the experiment on M19-MEL, with MOLT-4, in the experiment on Malme-3M, in the experiment on OVCAR-5, in the experiment on SF-268 and with SK-MEL-5 was > 100 µM (inactive) throughout. Also, the GI50 in the experiment on SNB-75, in the experiment on UACC-257 and with UACC-62 was > 100 µM (inactive) in each case.

Regarding `COc1nc(C(Cl)(Cl)Cl)c(Cl)c(OC)c1Cl` [PENCLOMEDINE], the GI50 in the experiment with 786-0 is 6.59 µM (inactive); in the experiment on BT-549, 38 µM (inactive); with CAKI-1 it was 40.3 µM (inactive); in the experiment on COLO 205, 44.1 µM (inactive); with DU-145, 38.7 µM (inactive); in the experiment on HCC 2998, 46.1 µM (inactive). Besides, the GI50 is 7.46 µM (inactive) in the experiment on HL-60; 33.7 µM (inactive) in the experiment on KM12; 31.5 µM (inactive) with M19-MEL; 17.7 µM (inactive) in the experiment on MCF7; 26.9 µM (inactive) with MDA-N; 19.4 µM (inactive) in the experiment with MOLT-4. Also, the GI50 in the experiment on Malme-3M was 31.2 µM (inactive); with OVCAR-5, 42.9 µM (inactive); in the experiment on PC-3, 39.6 µM (inactive); in the experiment on SF-268 it was 36.1 µM (inactive); in the experiment with SK-MEL-5 it was 22.5 µM (inactive); in the experiment on SNB-75, 7.76 µM (inactive). Besides, the GI50 was 43.8 µM (inactive) in the experiment on UACC-257 and 22.4 µM (inactive) in the experiment with UACC-62.
